Reference: patent US20260183281A1, “PHARMACEUTICAL COMPOSITION COMPRISING A PRMT5 INHIBITOR AND AN EGFR INHIBITOR” (APEIRON THERAPEUTICS (HONG KONG) LTD., priority 2024, published 2026)

Tests used:
[1] = test system: NCI-H292 MTAP deleted cells; assay: Cell growth inhibition (CellTiter-Glo, 144 h), single agents and combinations, CI by Calcusyn; type: cell-based; settings: for IC20 / IC50: Homo sapiens, NCI-H292, single agent; for Max Inh %: single agent
Procedure: NCI-H292 MTAP deleted cell line was purchased from Nanjing Cobioer Biotechnology Co., Ltd. The cells were cultured in a cell culture medium containing 90% RPMI1640 and 10% fetal bovine serum at 37° C. and 5% CO2. Experiments could only be performed on cells in the logarithmic growth phase.
Adjust the cell density in complete medium and seed the cells into 96-well culture plates. Incubate the plates at 37° C. with 5% CO2. Add the two test compounds to the plates using a serial dilution scheme. Continue incubation at 37° C. and 5% CO2 for 144 h. Thaw the CellTiter-Glo (CTG) reagent and equilibrate the plates to room temperature for ˜30 min. Add an equal volume of CTG reagent to each well, shake on an orbital shaker for 5 min to lyse the cells, and allow the signal to stabilize at room temperature for 20 min. Measure luminescence on a plate reader and record the data. Data analysis:
Cell growth inhibition (%)=100−(Lum test drug−Lum culture medium control)/(Lum solvent control−Lum culture medium control)×100%
Calcusyn was used to analyze the combination index (CI) values.

[2] = test system: human lung cancer PDX model LD1-0025-200729; assay: In vivo pharmacodynamic study in PDX NU/NU mouse model of Osimertinib-resistant non-small cell lung cancer; design: species or system NU/NU mice; settings: for Tumor volume (mm^3) Mean: each drug 10 mg/kg PO QD; for tumor growth inhibition (TGI) / statistical difference compared with the control group: each drug 10 mg/kg, PO, once daily; for tumor growth inhibition (TGI): 56-day study; for statistical difference compared with the control group: one-way ANOVA
Text: NU/NU mice, female, 6-8 weeks old, weighing approximately 18-22 g. They were purchased from Beijing Vital River Laboratory Animal Technology Co., Ltd. All experimental mice were kept in the SPF-level animal room of Xi'an LIDE and acclimated for at least 3 days in advance. The lung cancer model tumor-bearing mice were chosen. When a tumor grew to 800-1000 mm^3, the tumor was taken out under sterile conditions and passed it subcutaneously into NU/NU mice. When the average tumor volume reached about 150 mm^3 (100-200 mm^3), 18 tumor-bearing mice were chosen and randomly divided into 6 groups according to the tumor volume. The day of grouping was Day 0, and they were administered according to the following solution:
N: Number of animals; dose volume: 10 μL/g; PO: per os. Administer Osimertinib or Osimertinib solvent first, and administer compound A or compound A solvent after an interval of 1 hour.
The main purpose was to detect the growth inhibition effect or complete cure ability of the test drug compound A as a single drug or in combination with Osimertinib on the human lung cancer PDX model LD1-0025-200729.
Tumor volume and weight measurement of tumor-bearing mice: A vernier caliper was used to measure twice a week. The calculation equation for tumor volume is V=0.5 a×b^2, where a and b represent the major and minor diameters of the tumor, respectively;
Tumor growth inhibition: TGI (%)=[1−(Ti−T0)/(Vi−V0)]×100
Ti is the mean tumor volume after the start of administration in the compound group, T0 is the mean tumor volume at the first dose in the compound group, V0 is the mean tumor volume at the first dose in the vehicle control group, and Vi is the mean tumor volume after the start of administration in the vehicle control group.

[3] = administration time 0 days (grouping)

Row | Structure (SMILES) | IC20 [1] | IC50 [1] | Max Inh % [1] | Tumor volume (mm^3) Mean [2, 3] | Tumor volume (mm^3) Mean ([2]; administration time 4 days) | Tumor volume (mm^3) Mean ([2]; administration time 7 days) | Tumor volume (mm^3) Mean ([2]; administration time 11 days) | Tumor volume (mm^3) Mean ([2]; administration time 14 days) | Tumor volume (mm^3) Mean ([2]; administration time 18 days) | Tumor volume (mm^3) Mean ([2]; administration time 21 days) | Tumor volume (mm^3) Mean ([2]; administration time 25 days) | Tumor volume (mm^3) Mean ([2]; administration time 28 days) | Tumor volume (mm^3) Mean ([2]; administration time 32 days) | Tumor volume (mm^3) Mean ([2]; administration time 35 days) | Tumor volume (mm^3) Mean ([2]; administration time 39 days) | Tumor volume (mm^3) Mean ([2]; administration time 42 days) | Tumor volume (mm^3) Mean ([2]; administration time 46 days) | Tumor volume (mm^3) Mean ([2]; administration time 49 days) | Tumor volume (mm^3) Mean ([2]; administration time 53 days) | Tumor volume (mm^3) Mean ([2]; administration time 56 days) | further results
1 | C[C@H](c1ccc(C(F)(F)F)cn1)N(C(=O)c1cc2c(cc1F)nc(N)c1cncn12)C1CC1 [Compound C] | 9.6 nM | 49.9 nM | 64.6% | – | – | – | – | – | – | – | – | – | – | – | – | – | – | – | – | – | TGI (%) ([1]; Compound C 3.20 nM, Osimertinib 0.0 nM): 4.0%; TGI (%) ([1]; Compound C 16.0 nM, Osimertinib 0.0 nM): 23.7%; TGI (%) ([1]; Compound C 80.0 nM, Osimertinib 0.0 nM): 38.2%; TGI (%) ([1]; Compound C 400 nM, Osimertinib 0.0 nM): 49.5%; TGI (%) ([1]; Compound C 2000 nM, Osimertinib 0.0 nM): 61.0%; TGI (%) ([1]; Compound C 10000 nM, Osimertinib 0.0 nM): 60.4%
2 | CN(C(=O)c1ccc2nc(N)c3cncn3c2c1)[C@@H]1COc2cc(C(F)(F)F)ccc21 [Compound A, (S)-4-amino-N-methyl-N-(6-(trifluoromethyl)-2,3-dihydrobenzofuran-3-yl)imidazo[1,5-a]quinoxaline-8-carboxamide] | 10.7 nM | 117 nM | 71.2% | 155.2 mm^3 | 179.8 mm^3 | 205.2 mm^3 | 228.6 mm^3 | 251.0 mm^3 | 274.5 mm^3 | 271.3 mm^3 | 315.2 mm^3 | 321.2 mm^3 | 318.3 mm^3 | 308.3 mm^3 | 288.3 mm^3 | 266.9 mm^3 | 278.7 mm^3 | 281.0 mm^3 | 283.7 mm^3 | 287.7 mm^3 | Tumor volume (mm^3) Mean ([2]; administration time 57 days): 288.1 mm^3; tumor growth inhibition (TGI) [2]: 85.8%; statistical difference compared with the control group [2]: statistically significant difference; TGI (%) ([1]; Compound A 3.20 nM, Osimertinib 0 nM): 11.4%; TGI (%) ([1]; Compound A 16.0 nM, Osimertinib 0 nM): 10.8%; TGI (%) ([1]; Compound A 80.0 nM, Osimertinib 0 nM): 45.6%; TGI (%) ([1]; Compound A 400 nM, Osimertinib 0 nM): 51.8%; TGI (%) ([1]; Compound A 2000 nM, Osimertinib 0 nM): 66.6%; TGI (%) ([1]; Compound A 10000 nM, Osimertinib 0 nM): 75.1%
3 | C=CC(=O)Nc1cc(Nc2nccc(-c3cn(C)c4ccccc34)n2)c(OC)cc1N(C)CCN(C)C [Osimertinib, reference compound] | 18.6 nM | 50.2 nM | 91.1% | 155.7 mm^3 | 185.9 mm^3 | 208.3 mm^3 | 232.2 mm^3 | 253.6 mm^3 | 288.4 mm^3 | 310.4 mm^3 | 369.2 mm^3 | 407.1 mm^3 | 439.2 mm^3 | 470.2 mm^3 | 501.3 mm^3 | 534.5 mm^3 | 589.4 mm^3 | 605.3 mm^3 | 633.7 mm^3 | 679.4 mm^3 | Tumor volume (mm^3) Mean ([2]; administration time 57 days): 689.6 mm^3; tumor growth inhibition (TGI) [2]: 43.1%; statistical difference compared with the control group [2]: no statistically significant difference; TGI (%) ([1]; Osimertinib 4 nM, Compound A 0 nM): 16.0%; TGI (%) ([1]; Osimertinib 4.1 nM, Compound C 0 nM): 20.5%; TGI (%) ([1]; Osimertinib 12 nM, Compound A 0 nM): 13.4%; TGI (%) ([1]; Osimertinib 12.3 nM, Compound C 0 nM): 18.8%; TGI (%) ([1]; Osimertinib 37 nM, Compound A 0 nM): 35.4%; TGI (%) ([1]; Osimertinib 37.0 nM, Compound C 0 nM): 34.3%; TGI (%) ([1]; Osimertinib 111 nM, Compound A 0 nM): 70.6%; TGI (%) ([1]; Osimertinib 111.1 nM, Compound C 0 nM): 68.4%; TGI (%) ([1]; Osimertinib 333 nM, Compound A 0 nM): 81.8%; TGI (%) ([1]; Osimertinib 333.3 nM, Compound C 0 nM): 81.4%; TGI (%) ([1]; Osimertinib 1000 nM, Compound A 0 nM): 90.9%; TGI (%) ([1]; Osimertinib 1000.0 nM, Compound C 0 nM): 92.3%
